# Data from ChEMBL document CHEMBL5360672, “Identification of Novel Dual-Target Estrogen Receptor α Degraders with Tubulin Inhibitory Activity for the Treatment of Endocrine-Resistant Breast Cancer” (J Med Chem, 2023).
# pIC50: −log10 of the molar value. The source made the active and inactive calls. The calls are words filed in the database; no cut-off is given here.
# What was measured:
# [1] = target: T1, Estrogen receptor (Homo sapiens) (UniProt P03372); assay: Induction of ERalpha degradation in human MCF7 cells at 5 uM incubated for 24 hrs in the presence of MG-132 by Western blot analysis; assay type: cell-based
# T1 sequence (whole entry): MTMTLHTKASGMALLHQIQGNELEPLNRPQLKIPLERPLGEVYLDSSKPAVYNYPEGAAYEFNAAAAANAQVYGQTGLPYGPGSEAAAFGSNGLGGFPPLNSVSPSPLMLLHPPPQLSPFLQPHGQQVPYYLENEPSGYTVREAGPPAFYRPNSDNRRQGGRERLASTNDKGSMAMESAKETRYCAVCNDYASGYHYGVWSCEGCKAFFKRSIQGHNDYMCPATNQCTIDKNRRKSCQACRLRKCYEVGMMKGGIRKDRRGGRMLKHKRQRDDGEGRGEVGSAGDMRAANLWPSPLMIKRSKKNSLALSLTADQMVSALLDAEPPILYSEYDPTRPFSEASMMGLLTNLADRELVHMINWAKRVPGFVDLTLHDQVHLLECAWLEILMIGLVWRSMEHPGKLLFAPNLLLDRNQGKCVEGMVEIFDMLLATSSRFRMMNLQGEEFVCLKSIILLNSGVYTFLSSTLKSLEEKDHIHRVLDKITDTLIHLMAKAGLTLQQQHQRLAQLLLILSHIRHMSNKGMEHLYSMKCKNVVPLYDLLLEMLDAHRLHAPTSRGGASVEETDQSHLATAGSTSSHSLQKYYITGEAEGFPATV
# T47D [2] = assay: Antiproliferative activity against human T47D cells harboring ERalpha D538G mutant assessed as inhibition of cell proliferation incubated for 72 hrs by CCK8 assay; assay type: functional, cell-based
# [3] = tested on: Tamoxifen-resistant LCC2 cell; assay: Antitumor activity against human Tamoxifen-resistant LCC2 cells xenografted in Balb/c nude mouse assessed as reduction in Ki67 positive cells at 2 mg/kg, ip administered every other day for 20 days by immunohistochemistry analysis; assay type: functional, organism-based; settings: time 20.0 day
# [4] = target: T1, Estrogen receptor (Homo sapiens); assay: Induction of ERalpha degradation in human MCF7 cells at 5 uM incubated for 24 hrs by Western blot analysis relative to SeCN-OBHSA derivatives; assay type: cell-based
# Estrogen receptor = target: T2, Estrogen receptor (Homo sapiens, UniProt P03372); assay: Antagonist activity at ERalpha (unknown origin) expressed in HEK293T cells co-expressing ERbeta and ERE-luciferase reporter assessed as reduction in relative light unit incubated for 24 hrs by dual-luciferase reporter assay; assay type: cell-based
# T2 sequence (P03372 whole entry): T1 sequence (whole entry)
# [5] = Antiproliferative activity against human Tamoxifen-resistant LCC2 cells assessed as inhibition of cell proliferation incubated for 72 hrs by CCK8 assay; assay type: functional, cell-based
# LCC2 = assay: Induction of cell cycle arrest in human LCC2 cells assessed as accumulation of cells at G2/M phase incubated for 48 hrs by flow cytometry analysis; assay type: functional, cell-based; settings: dose 6-24 µM
# [6] = target: T1, Estrogen receptor (Homo sapiens); assay: Induction of ERalpha degradation in human MCF7 cells incubated for 6 to 24 hrs by Western blot analysis; assay type: cell-based; settings: dose 0.5-5 µM, time 6-24 hrs
# Tubulin (Homo sapiens) [7] = target: T3, Tubulin (Homo sapiens) (UniProt P68371+Q9H4B7+P0DPH7+P68366+Q13509+Q71U36+P04350+Q3ZCM7+P07437+P68363+Q9BQE3+Q6PEY2+Q13885+Q9BVA1+Q9BUF5); assay: Inhibition of tubulin polymerization (unknown origin) at 30 uM incubated for 60 mins by microplate reader analysis; assay type: protein-complex assay
# [8] = target: T1, Estrogen receptor (Homo sapiens); assay: Induction of ERalpha degradation in human MCF7 cells at 1 uM incubated for 6 to 24 hrs by Western blot analysis; assay type: cell-based; settings: time 6-24 hrs
# MCF7 [9] = assay: Antitumor activity against human MCF7 cells xenografted in Balb/c nude mouse assessed as tumor growth inhibition at 4 mg/kg, ip administered every other day for 20 days relative to control; assay type: functional; settings: MCF7, 480 h, time 20 day, read-out: TGI
# [10] = tested on: Estrogen receptor (Homo sapiens), P03372 [Y537S]; assay: Induction of ERalpha degradation in human T47D cells harboring ERalpha Y537S mutant at 0.5 to 5 uM incubated for 24 hrs by Western blot analysis; assay type: cell-based; settings: dose 0.5-5 µM
# Sequence of Estrogen receptor (Homo sapiens), P03372 [Y537S] (P03372 whole entry Y537S): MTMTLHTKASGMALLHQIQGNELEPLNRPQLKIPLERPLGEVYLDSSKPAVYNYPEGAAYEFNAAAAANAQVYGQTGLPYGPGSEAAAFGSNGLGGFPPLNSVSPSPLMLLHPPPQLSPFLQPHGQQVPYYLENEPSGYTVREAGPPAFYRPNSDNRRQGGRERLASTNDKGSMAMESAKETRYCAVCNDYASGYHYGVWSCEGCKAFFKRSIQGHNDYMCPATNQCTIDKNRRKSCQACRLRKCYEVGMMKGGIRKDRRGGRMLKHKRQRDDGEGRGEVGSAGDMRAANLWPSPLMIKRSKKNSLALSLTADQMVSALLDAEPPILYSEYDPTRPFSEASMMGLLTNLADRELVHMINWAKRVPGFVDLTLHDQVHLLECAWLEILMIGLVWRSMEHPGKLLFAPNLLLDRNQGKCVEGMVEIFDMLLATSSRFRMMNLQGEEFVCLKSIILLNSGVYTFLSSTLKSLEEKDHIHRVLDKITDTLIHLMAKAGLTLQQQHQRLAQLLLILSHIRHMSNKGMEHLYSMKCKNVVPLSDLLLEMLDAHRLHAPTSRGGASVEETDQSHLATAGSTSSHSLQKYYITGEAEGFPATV
# [11] = target: T1, Estrogen receptor (Homo sapiens); assay: Induction of ERalpha degradation in human MCF7 cells at 5 uM incubated for 24 hrs by Western blot analysis; assay type: cell-based
# Mus musculus = assay: In vivo induction of ERalpha degradation in BALB/c nude mouse xenografted with human tamoxifen-resistant LCC2 cells assessed as decrease in ERalpha expression in tumor at 2 mg/kg, ip administered every other day for 20 days by Western blot analysis; assay type: functional, organism-based; settings: time 20.0 day
# MCF7 [12] = assay: Antitumor activity against human MCF7 cells xenografted in Balb/c nude mouse assessed as tumor growth inhibition at 2 mg/kg, ip administered every other day for 20 days relative to control; assay type: functional; settings: MCF7, 480 h, time 20 day, read-out: TGI
# Tubulin (Homo sapiens) [13] = target: T3, Tubulin (Homo sapiens); assay: Disruption of microtubule network in human LCC2 cells assessed as chaotic microtubule network at 4 uM incubated for 48 hrs by DAPI staining based confocal laser scanning microscopic analysis; assay type: cell-based
# Tubulin (Homo sapiens) [14] = target: T3, Tubulin (Homo sapiens); assay: Disruption of microtubule network in human MCF7 cells assessed as ruptured microtubule network at 2 uM incubated for 48 hrs by DAPI staining based confocal laser scanning microscopic analysis; assay type: cell-based
# Homo sapiens = species: Homo sapiens; assay: Selectivity ratio of relative binding affinity for human ERalpha to relative binding affinity to human ERbeta
# MCF7 [15] = assay: Antiproliferative activity against ERalpha positive human MCF7 cells assessed as inhibition of cell proliferation incubated for 72 hrs by CCK8 assay; assay type: functional, cell-based; settings: MCF7, 72 h
# [16] = target: T1, Estrogen receptor (Homo sapiens); assay: Binding affinity to human ERalpha assessed as relative binding affinity incubated under vibration for 1 min followed by 2 hrs incubation under dark condition by fluorescence polarization assay relative to estradiol; settings: time 121.0 min
# Tubulin (Homo sapiens) [17] = target: T3, Tubulin (Homo sapiens); assay: Disruption of microtubule network in human MCF7 cells assessed as chaotic microtubule network at 2 uM incubated for 48 hrs by DAPI staining based confocal laser scanning microscopic analysis; assay type: cell-based
# Tubulin (Homo sapiens) [18] = target: T3, Tubulin (Homo sapiens); assay: Disruption of microtubule network in human LCC2 cells assessed as ruptured microtubule network at 4 uM incubated for 48 hrs by DAPI staining based confocal laser scanning microscopic analysis; assay type: cell-based
# [19] = target: Estrogen receptor beta (Homo sapiens) (UniProt Q92731); assay: Binding affinity to human ERbeta assessed as relative binding affinity incubated under vibration for 1 min followed by 2 hrs incubation under dark condition by fluorescence polarization assay relative to estradiol; settings: time 121.0 min
# Sequence of Estrogen receptor beta (Homo sapiens) (Q92731 whole entry): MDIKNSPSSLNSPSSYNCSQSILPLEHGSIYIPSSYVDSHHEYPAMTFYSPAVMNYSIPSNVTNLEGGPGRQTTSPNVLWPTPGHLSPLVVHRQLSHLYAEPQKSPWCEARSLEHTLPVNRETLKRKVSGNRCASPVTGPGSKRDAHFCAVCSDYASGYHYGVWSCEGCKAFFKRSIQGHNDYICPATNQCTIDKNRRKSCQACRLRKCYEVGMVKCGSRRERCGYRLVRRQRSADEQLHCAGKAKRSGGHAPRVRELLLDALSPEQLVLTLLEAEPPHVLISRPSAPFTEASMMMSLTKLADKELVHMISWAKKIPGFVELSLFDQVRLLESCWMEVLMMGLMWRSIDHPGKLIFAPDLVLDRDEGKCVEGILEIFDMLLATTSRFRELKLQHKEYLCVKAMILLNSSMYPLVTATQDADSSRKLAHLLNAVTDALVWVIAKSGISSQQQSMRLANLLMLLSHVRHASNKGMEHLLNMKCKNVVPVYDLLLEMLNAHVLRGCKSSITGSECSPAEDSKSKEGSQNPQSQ
# T47D [20] = assay: Antiproliferative activity against ERalpha positive human T47D cells assessed as inhibition of cell proliferation incubated for 72 hrs by CCK8 assay; assay type: functional, cell-based
# [21] = tested on: Estrogen receptor (Homo sapiens), P03372 [D538G]; assay: Induction of ERalpha degradation in human T47D cells harboring ERalpha D538G mutant at 0.5 to 5 uM incubated for 24 hrs by Western blot analysis; assay type: cell-based; settings: dose 0.5-5 µM
# Sequence of Estrogen receptor (Homo sapiens), P03372 [D538G] (P03372 whole entry D538G): as the sequence (P03372 whole entry Y537S) above, with S537Y, D538G counted along it
# [22] = Toxicity in Balb/c nude mouse xenografted with human MCF7 cells assessed as body weight loss at 2 to 4 mg/kg, ip administered every other day for 20 days; assay type: organism-based; settings: in vivo, 480 h, dose 2-4 mg/kg, time 20 day
# [23] = Selectivity index, ratio of IC50 for cytotoxicity against human MCF-10A cells to IC50 for antiproliferative activity against human MCF7 cells; assay type: toxicity, cell-based; settings: MCF-10A cells and MCF7 cells, read-out: Ratio IC50
smiles,measurement,setting,value
N#C[Se]CCCCCC(=O)Nc1ccc(C2=C(c3ccc(O)cc3)C3CC(S(=O)(=O)N(CC(F)(F)F)c4ccccc4F)C2O3)cc1 (configuration not stated),Activity,[1],inactive
same,pIC50,T47D [2],5.78
same,Activity,[3],Active
same,Activity,[4],Active
same,pIC50,Estrogen receptor,7.25
same,pIC50,[5],5.80
same,Activity,LCC2,Dose-Dependent Effect
same,Activity,[6],Dose-Dependent Effect
same,tubulin polymerization inhibition (active/not active),Tubulin (Homo sapiens) [7],Active
same,Activity,[8],Active
same,inhibition in vivo at 4 mg/kg,MCF7 [9],77.7%
same,Activity,[10],Active
same,Activity,[11],Active
same,Activity,Mus musculus,Active
same,inhibition in vivo at 2 mg/kg,MCF7 [12],74.6%
same,Activity,Tubulin (Homo sapiens) [13],Active
same,Activity,Tubulin (Homo sapiens) [14],Active
same,Selectivity ratio,Homo sapiens,85.7
same,pIC50,MCF7 [15],7.22
same,RBA,[16],8.57%
same,Activity,Tubulin (Homo sapiens) [17],Active
same,Activity,Tubulin (Homo sapiens) [18],Active
same,RBA,[19],0.1%
same,pIC50,T47D [20],5.59
same,Activity,[21],Active
same,Activity,[22],Non-Toxic
same,selectivity ratio,[23],264
